{"source": "patent US12195490B2", "about": "“STRAD-binding agents and uses thereof” (The Regents of the University of California, priority 2020, dated 2025)", "note": "Structures can show the parent of a compound that is named as a salt."}
{"tested_on": "ACHN cell line", "experiment": "drug screen of the SelleckChem kinase inhibitor library with and without 5 uM SU-329, Cell-Titer Glo after 5 days", "type": "cell-based", "settings": "kinase inhibitor at 200 nM with and without 5 uM SU329; ACHN cell line; 5 days; Cell-Titer Glo"}
{"molecule": "Cc1ccccc1-n1c(Cn2ncc3c(N)ncnc32)nc2cccc(C)c2c1=O", "note": "[PIK-293]", "log2fc": 0.1249}
{"molecule": "CO[C@@H](C(=O)N1Cc2[nH]nc(NC(=O)c3ccc(N4CCN(C)CC4)cc3)c2C1)c1ccccc1", "note": "[Danusertib (PHA-739358)]", "log2fc": "−0.1537"}
{"molecule": "Cc1cnc(-c2cnc(NCCNc3ccc(C#N)cn3)nc2-c2ccc(Cl)cc2Cl)[nH]1.Cl", "note": "[CHIR-99021 (CT99021) HCl]", "log2fc": 0.9577}
{"molecule": "COc1cccc2cc(-c3nc([C@H]4CC[C@H](C(=O)O)CC4)n4ncnc(N)c34)[nH]c12", "note": "[OSI-027]", "log2fc": "−1.494"}
{"molecule": "CN1CCN(c2ccc(Nc3cc(-c4cccc(-n5ccc6cc(C7CC7)cc(F)c6c5=O)c4CO)cn(C)c3=O)nc2)CC1", "note": "[RN486]", "log2fc": 0.08695}
{"molecule": "O=C(O)[C@]1(Cc2cccc(Nc3nccs3)n2)CC[C@@H](Oc2cccc(Cl)c2F)CC1", "note": "[MK-5108 (VX-689)]", "log2fc": "−0.2429"}
{"molecule": "CCOC(=O)c1cnc2ccc(-c3cncc(NS(=O)(=O)c4ccccc4)c3)cn12", "note": "[HS-173]", "log2fc": 0.4717}
{"molecule": "N[C@@H]1CCCN(c2c(/C=C3\\SC(=O)NC3=O)cccc2-c2ccccc2)C1", "note": "[AZD1208]", "log2fc": "−0.4967"}
{"molecule": "NC(=O)c1ncn([C@@H]2O[C@H](CO)[C@@H](O)[C@H]2O)c1N", "note": "[AICAR (Acadesine)]", "log2fc": 0.7164}
{"molecule": "[H]/N=C(/N)N/C(=N/[H])NCCc1ccccc1", "note": "[Phenformin HCl]", "log2fc": 0.5945}
{"molecule": "C=CC(=O)Nc1cccc(Nc2nc(Nc3ccc(OCCOC)cc3)ncc2F)c1", "note": "[CC-292 (AVL-292)]", "log2fc": "−0.2142"}
{"molecule": "Cc1c(NC(=O)c2ccc(C(C)(C)C)cc2)cccc1-c1cn(C)c(=O)c(Nc2ccc(C(=O)N3CCOCC3)cc2)n1", "note": "[CGI1746]", "log2fc": 0.8939}
{"molecule": "COc1cc(Nc2ncc(F)c(Nc3ccc4c(n3)N(COP(=O)(O)O)C(=O)C(C)(C)O4)n2)cc(OC)c1OC", "note": "[Fostamatinib (R788)]", "log2fc": 0.7242}
{"molecule": "C=CC(=O)Nc1cccc(Oc2nc(Nc3ccc(N4CCN(C)CC4)cc3)ncc2Cl)c1", "note": "[WZ3146, reference compound]", "log2fc": 0.05459}
{"molecule": "Oc1c2ccccc2c2c3c(cccc13)N=N2", "note": "[SP600125, reference compound]", "log2fc": 0.06823}
{"molecule": "CNc1nc(Nc2cnn([C@H]3CCN(C4COC4)C[C@@H]3F)c2Cl)ncc1C(F)(F)F", "note": "[GNE-9605]", "log2fc": 0.4092}
{"molecule": "C[C@@H]1CCN(C(=O)CC#N)C[C@@H]1N(C)c1ncnc2[nH]ccc12", "note": "[Tofacitinib (CP-690550, Tasocitinib)]", "log2fc": 0.6421}
{"molecule": "COC(=O)Nc1ccc(-c2nc(N3CCOCC3)c3cnn(C4CCN(C(=O)OC)CC4)c3n2)cc1", "note": "[WYE-354]", "log2fc": "−1.143"}
{"molecule": "CC(C)(C)c1nc(-c2cccc(NS(=O)(=O)c3c(F)cccc3F)c2F)c(-c2ccnc(N)n2)s1", "note": "[Dabrafenib (GSK2118436), dabrafenib, reference compound]", "log2fc": "−0.314"}
{"molecule": "O=C(NCCCNc1nc(Nc2cccc(NC(=O)N3CCCC3)c2)ncc1I)c1cccs1", "note": "[BX-795]", "log2fc": "−0.3476"}
{"molecule": "O=C(c1ccc(Nc2nccc(-c3cc4ccccc4s3)n2)cc1)N1CCC(N2CCCC2)CC1", "note": "[IKK-16 (IKK Inhibitor VII)]", "log2fc": "−0.1183"}
{"molecule": "COC(=O)c1ccc2c(c1)NC(=O)/C2=C(\\Nc1ccc(N(C)C(=O)CN2CCN(C)CC2)cc1)c1ccccc1", "note": "[Nintedanib (BIBF 1120)]", "log2fc": 0.7859}
{"molecule": "N#Cc1c(O)c2c(-c3ccc(-c4ccccc4O)cc3)csc2[nH]c1=O", "note": "[A-769662]", "log2fc": 0.1798}
{"molecule": "Cc1cc(Nc2nc(N[C@@H](C)c3ccc(F)cc3)c(C#N)cc2F)n[nH]1", "note": "[AZ 960]", "log2fc": 0.979}
{"molecule": "CN(c1ncccc1CNc1nc(Nc2ccc3c(c2)CC(=O)N3)ncc1C(F)(F)F)S(C)(=O)=O", "note": "[PF-562271]", "log2fc": 0.8258}
{"molecule": "CC(C)n1nc(-c2ccc3oc(N)nc3c2)c2c(N)ncnc21", "note": "[INK 128 (MLN0128)]", "log2fc": "−0.2018"}
{"molecule": "N#Cc1c(Oc2ccc(F)c(NC(=O)Cc3cccc(C(F)(F)F)c3)c2)ccc2nc(NC(=O)C3CC3)sc12", "note": "[TAK-632]", "log2fc": 0.4732}
{"molecule": "CC(C)(C)c1ccc(S(=O)(=O)/C=C/C#N)cc1", "note": "[Bay 11-7085]", "log2fc": 0.004153}
{"molecule": "Cl.Cl.Clc1ccc(Nc2nnc(Cc3ccncc3)c3ccccc23)cc1", "note": "[Vatalanib (PTK787) 2HCl]", "log2fc": "−0.4289"}
{"molecule": "COc1cc(Nc2ncc(F)c(Nc3ccc4c(n3)NC(=O)C(C)(C)O4)n2)cc(OC)c1OC", "note": "[R406 (free base)]", "log2fc": 0.8334}
{"molecule": "Nc1cc(C(F)(F)F)c(-c2cc(N3CCOCC3)nc(N3CCOCC3)n2)cn1", "note": "[Buparlisib (BKM120, NVP-BKM120)]", "log2fc": "−1.183"}
{"molecule": "CNC(=O)c1cc(Oc2ccc(NC(=O)Nc3ccc(Cl)c(C(F)(F)F)c3)cc2)ccn1", "note": "[Sorafenib Tosylate]", "log2fc": "−0.2533"}
{"molecule": "COc1cc2ncnc(Nc3ccc(F)c(Cl)c3)c2cc1OCCCN1CCOCC1", "note": "[Gefitinib (ZD1839)]", "log2fc": 0.4905}
{"molecule": "Cc1cnc(-c2cnc(NCCNc3ccc(C#N)cn3)nc2-c2ccc(Cl)cc2Cl)[nH]1", "note": "[CHIR-99021 (CT99021)]", "log2fc": 1.316}
{"molecule": "Cc1nc(N)sc1-c1ccnc(Nc2ccc(N3CCOCC3)cc2)n1", "note": "[CYC116]", "log2fc": "−0.814"}
{"molecule": "Oc1ccc(Nc2nc(-c3ccc(Cl)cc3)cs2)cc1", "note": "[SKI II]", "log2fc": 0.06564}
{"molecule": "CC(C)(C)c1cc(NC(=O)Nc2ccc(-c3cn4c(n3)sc3cc(OCCN5CCOCC5)ccc34)cc2)no1", "note": "[Quizartinib (AC220)]", "log2fc": 0.278}
{"molecule": "Cc1ccc(NC(=O)c2cccc(C(C)(C)C#N)c2)cc1Nc1ccc2ncn(C)c(=O)c2c1", "note": "[AZ 628]", "log2fc": 0.4319}
{"molecule": "COc1cc(N2CCC(N(C)C)CC2)ccc1Nc1ncc(Cl)c(Nc2ccccc2P(C)(C)=O)n1", "note": "[ALK-IN-1]", "log2fc": "−0.4692"}
{"molecule": "CCCCCCCCCCCCc1ccc(S(=O)(=O)Nc2nncs2)cc1", "note": "[PHT-427]", "log2fc": "−0.02861"}
{"molecule": "Cn1cc(C2=C(c3cn(C4CCN(Cc5ccccn5)CC4)c4ccccc34)C(=O)NC2=O)c2ccccc21", "note": "[Enzastaurin (LY317615)]", "log2fc": 0.5814}
{"molecule": "O=c1c(O)c(-c2ccc(O)c(O)c2)oc2cc(O)cc(O)c12", "note": "[Quercetin]", "log2fc": "−0.449"}
{"molecule": "CNC(=O)c1cc(COc2nnc(Nc3ccc(Cl)cc3)c3ccoc23)ccn1", "note": "[Telatinib]", "log2fc": 0.2479}
{"molecule": "CCOc1cc(C(=O)N2CCC(N3CCN(C)CC3)CC2)ccc1Nc1ncc2c(n1)N(C1CCCC1)c1ccccc1C(=O)N2C", "note": "[ERK5-IN-1]", "log2fc": 0.1031}
{"molecule": "Cc1cc(F)c(Nc2ncnc3cc(OCc4ccccc4)ccc23)cc1O.Cl", "note": "[ZM 323881 HCl]", "log2fc": 0.1765}
{"molecule": "Nc1nc(Nc2ccc(S(N)(=O)=O)cc2)nn1C(=O)c1c(F)cccc1F", "note": "[JNJ-7706621]", "log2fc": 0.3857}
{"molecule": "COc1cc2ncnc(Nc3ccc(F)c(Cl)c3)c2cc1NC(=O)/C=C/CN1CCCCC1", "note": "[Dacomitinib (PF299804, PF299)]", "log2fc": 0.3997}
{"molecule": "N#CC1(c2ccc(NC(=O)c3cccnc3NCc3ccncc3)cc2)CCCC1", "note": "[Apatinib]", "log2fc": 0.257}
{"molecule": "C[C@H](NC(=O)/C(C#N)=C/c1cccc(Br)n1)c1ccccc1", "note": "[WP1066]", "log2fc": "−0.4551"}
{"molecule": "CN(C)CCCn1cc(C2=C(c3c[nH]c4ccccc34)C(=O)NC2=O)c2ccccc21", "note": "[Bisindolylmaleimide I (GF109203X)]", "log2fc": "−0.2332"}
{"molecule": "Cc1ccc(S(=O)(=O)/C=C/C#N)cc1", "note": "[BAY 11-7082, reference compound]", "log2fc": "−0.1258"}
{"molecule": "CS(=O)(=O)N1CCc2c(-c3cnc(N)nc3)nc(N3CCOCC3)nc21", "note": "[CH5132799]", "log2fc": "−1.044"}
{"molecule": "CC[C@H](Nc1ncnc2[nH]cnc12)c1nc2cccc(F)c2c(=O)n1-c1ccccc1", "note": "[Idelalisib (CAL-101, GS-1101)]", "log2fc": 0.09838}
{"molecule": "COc1ccc(-c2nc(N3CCOCC3)c3sc(CN(C)c4ncc(C(=O)NO)cn4)cc3n2)cn1", "note": "[CUDC-907]", "log2fc": 0.5895}
{"molecule": "Cc1cc(Nc2cc(N3CCN(C)CC3)nc(/C=C/c3ccccc3)n2)n[nH]1", "note": "[ENMD-2076]", "log2fc": 0.6799}
{"molecule": "COc1cc2ncnc(Nc3ccc(Cl)cc3F)c2cc1OC", "note": "[ZM 306416]", "log2fc": 0.5807}
{"molecule": "CN1CC[C@H](c2c(O)cc(O)c3c(=O)cc(-c4ccccc4Cl)oc23)[C@H](O)C1", "note": "[Flavopiridol HCl]", "log2fc": 1.693}
{"molecule": "SNS-314 Mesylate", "log2fc": 0.4469}
{"molecule": "CNC(=O)c1cc(Oc2ccc(NC(=O)Nc3cc(C(C)(C)C)nn3-c3ccc4ncccc4c3)c(F)c2)ccn1", "note": "[Rebastinib (DCC-2036)]", "log2fc": 0.007715}
{"molecule": "Cc1ccc(-n2nc(C(C)(C)C)cc2NC(=O)Nc2ccc(OCCN3CCOCC3)c3ccccc23)cc1", "note": "[Doramapimod (BIRB 796)]", "log2fc": "−0.5477"}
{"molecule": "Cc1[nH]nc2ccc(-c3cncc(OC[C@@H](N)Cc4ccccc4)c3)cc12", "note": "[A-674563]", "log2fc": "−0.6438"}
{"molecule": "CCCCOc1c(C(=O)c2c(F)cc(C)cc2F)c[nH]c2nncc1-2", "note": "[BMS-265246]", "log2fc": "−0.1077"}
{"molecule": "Nc1nc(N)c(N=O)c(OCC2CCCCC2)n1", "note": "[NU6027]", "log2fc": "−0.2463"}
{"molecule": "CC(C)CCN1c2nc(Nc3cc(F)c(O)c(F)c3)ncc2N(C)C(=O)C1C", "note": "(stereo not drawn) [BI-D1870]", "log2fc": 0.7499}
{"molecule": "CCS(=O)(=O)c1cccc(-c2cc(C(=O)NC3CCN(C)CC3)c(C)c3[nH]c4ncc(C)cc4c23)c1", "note": "[TAK-901]", "log2fc": 0.2818}
{"molecule": "Cc1nc(Nc2n[nH]c3c2CN(C(=O)N[C@H](CN(C)C)c2ccccc2)C3(C)C)c2sccc2n1", "note": "[PF-3758309]", "log2fc": 0.8283}
{"molecule": "O=C(NOCC(O)CO)c1cc(Br)c(F)c(F)c1Nc1ccc(I)cc1F", "note": "(stereo not drawn) [PD318088]", "log2fc": 0.4184}
{"molecule": "N#CCNC(=O)c1ccc(-c2ccnc(Nc3ccc(N4CCOCC4)cc3)n2)cc1", "note": "[Momelotinib (CYT387)]", "log2fc": "−1.441"}
{"molecule": "Cl.O=S(=O)(c1cccc2cnccc12)N1CCCNCC1", "note": "[Fasudil (HA-1077) HCl]", "log2fc": 0.1457}
{"molecule": "Cn1cc(/C=C2\\C(=O)Nc3cccnc32)c2ccccc21", "note": "[GW441756]", "log2fc": "−0.09333"}
{"molecule": "Cc1cc(Nc2cc(N3CCN(C)CC3)nc(Sc3ccc(NC(=O)C4CC4)cc3)n2)n[nH]1", "note": "[Tozasertib (VX-680, MK-0457)]", "log2fc": 0.9265}
{"molecule": "CNC(=O)c1ccccc1Sc1ccc2c(/C=C/c3ccccn3)n[nH]c2c1", "note": "[Axitinib]", "log2fc": 0.00155}
{"molecule": "N#Cc1c(NC(=O)c2cccc3ccccc23)sc2c1CCCC2", "note": "[JNK Inhibitor IX]", "log2fc": 0.1814}
{"molecule": "CN(C)CCOc1ccc(-c2nc(-c3ccncc3)c(-c3ccc4c(c3)CC/C4=N\\O)[nH]2)cc1", "note": "[SB590885]", "log2fc": 0.2113}
{"molecule": "Cc1cnc(NC(=O)Nc2cc(Br)c(C)cc2OC[C@@H]2CNCCO2)cn1", "note": "[LY2603618]", "log2fc": "−0.1739"}
